# Reference: US6559125B1, “Polyamide-alkylator conjugates and related products and method” (priority 2000, dated 2003)
# What was measured:
# [1] = test system: 5′-end labeled and 3′-end labeled 277 base pair restriction fragment; assay: Thermally induced strand cleavage by seco-CBI conjugates; type: biochemical; conditions: for concentration range of alkylation by CBI control compounds: FIG. 17, 1 μM and 10 μM, 12 H, 37° C.
# Description: Storage phosphor autoradiograms of 8% denaturing polyacrylamide gels used to separate the fragments generated by heat induced DNA cleavage at alkylation sites. All lanes contain 10 kcpm of either 5′ or 3′ radiolabeled DNA. Each reaction was equilibrated in TE, pH 7.5 at 37° C. for 12 H. The unbound polyamide was removed by precipitation, and then strand cleavage was induced by heating at 95° C. for 30 min. (a) 5′-^32P-end labeled restriction fragment (SEQ ID NO:18). (b) 3′-^32P-end labeled restriction fragment. (a-b) lanes 1 and 14, intact DNA; lanes 2-11, 15-24, 1 pM, 2 pM, 5 pM, 10 pM, 20 pM, 50 pM, 100 pM, 200 pM, 500 pM, 1 nM respectively of the corresponding polyamide; lanes 12 and 25, A-specific reaction; lanes 13 and 26, G-specific reaction. (a-b) Ball-and-stick models of polyamides bound to match and mismatch sites on the DNA fragment. Match sites 5′-TGGTCA-3′ and 5′-AGGACT-3′ and single base pair mismatch site 5′-AGGAGT-3′ are indicated in bold on the sequence, with arrows indicating cleavage bands. The polyamide is colored as in FIG. 10, with the bold triangle representing (R)-CBI.
# Storage phosphor autoradiograms of 8% denaturing polyacrylamide gels used to separate the fragments generated by heat induced DNA cleavage at alkylation sites. All lanes contain 10 kcpm of either 5′ or 3′ radiolabeled DNA. Each reaction was equilibrated in TE, pH 7.5 at 37° C. from 0 to 10 hours. The unbound polyamide was removed by precipitation, and then strand cleavage was induced by heating at 95° C. for 30 min. (a) 5′-^32P-end labeled restriction fragment (SEQ ID NO: 18). (b) 3′-^32P-end labeled restriction fragment. (a-b) lanes 1 and 11, intact DNA; lanes 2-8, 1 nM of corresponding polyamide, equilibrations for 0, 15 minutes, 30 minutes, 1 hour, 2 hours, 5 hours, and 10 hours, respectively; lanes 9 and 19, A-specific reaction; lanes 10 and 20, G-specific reaction. (a-b) Ball-and-stick models of polyamides bound to match and mismatch sites on the DNA fragment. Match sites 5′-TGGTCA-3′ and 5′-AGGACT-3′ and single base pair mismatch site 5′-AGGAGT-3′ are indicated in bold on the sequence, with arrows indicating cleavage bands. The polyamide is colored as in FIG. 10, with the bold triangle representing (R)-CBI.
# Storage phosphor autoradiograms of 8% denaturing polyacrylamide gels used to separate the fragments generated by heat induced DNA cleavage at alkylation sites. All lanes contain 10 kcpm of either 5′ or 3′ radiolabeled DNA. Each reaction was equilibrated in TE, pH 7.5 at 37° C. for 12 H. The unbound polyamide or agent was removed by precipitation, and then strand cleavage was induced by heating at 95° C. for 30 min. (a) 5′-^32P-end labeled restriction fragment. (b) 3′-^32P-end labeled restriction fragment. (a-b) Lane 1, intact DNA; lane 2, 1R, 1 nM; lane 3 1S, 1 nM; lanes 4-5, 2R, 1 μM and 10 μM, respectively; lanes 6-7, 2S, 1 μM and 10 μM, respectively; lane 8, A-specific reaction; lane 9, G-specific reaction.
# All reactions were carried out in a volume of 50 μl. A polyamide or seco-CBI-dimethyl gaba stock solution or water (for reference lane) was added to an assay buffer of TE (pH7.5) and […] of 3′- or 5′-radiolabeled DNA. The solutions were allowed to equilibrate for 12 hours or the appropriate time (for time course reactions) at 37° C. The reactions were stopped with 60 μl of a solution containing NaOAc (600 mM), EDTA pH 8.0 (12.5 mM), calf thymus DNA (150 μM base pair), glycogen (0.8 mg mL^−1), and NaCl (2 M). Ethanol was added to remove unbound polyamide and precipitate the products. The reactions were resuspended in 20 μl of TE (pH 7.5) and cleavage was initiated by heating at 95° C. for 30 minutes. The cleavage products were precipitated with 150 μl ethanol and then resuspended in 100 mM trisborate-EDTA/80% formamide loading buffer, and denatured and loaded onto polyacrylamide gels as previously reported. The gels were quantitated by the use of storage phosphor technology. […]
# [2] = test system: 3′ and 5′ 32P labeled 241 base pair restriction fragments containing the HIV-1 promoter; assay: Thermal cleavage assay (heat-induced single-strand DNA cleavage); type: biochemical
# Description: Storage phosphor autodiograms of 8% denaturing polyacrylamide gels used to separate the fragments generated by heat induced DNA cleavage at alkylation sites. All reactions contained 10,000 cpm restriction fragment, 10 mM Tris.HCl (pH 7.0), 10 mM KCl, 10 mM MgCl and 5 mM CaCl and were performed at 37° C. Following 24 hour of equilibration, the DNA pellet was resuspended in sodium citrate buffer (pH=7.2) and heated to 90° C. for 15 min to thermally cleave at sites of adenine- or guanine-N3 lesions. (a) 5′-^32P-end-labeled restriction fragment (SEQ ID NO:5). (b) 3′-^32P-end-labeled restriction fragment. (a-b) Lane 1, intact DNA; lane 2, A-specific reaction; lane 3, G-specific reaction; lanes 5-13, […], respectively. (b) Lane 14, 10 μM CHL-Dp (5). Center, alkylation sites on the DNA fragment, indicate by arrows. Sites 5′-TCGTCGACGA-3′ (SEQ ID NO:20) (A), 5′-ACGTCGA-3′ (B), and 5′-ACGTCGA-3′ (E) are match sites and 5′-ACATCTT-3′ (C) and 5′-TCGTCAG-3′ (D) are double base pair mismatches (mismatches indicated by gray boxes).
# Storage phosphor autodiogram of 8% denaturing polyacrylamide gels used to separate the fragments generated by heat induced DNA cleavage at alkylation sites. All reactions contained 10,000 cpm restriction fragment, 10 mM Tris.HCl (pH 7.0), 10 mM KCl, 10 mM MgCl2 and 5 mM CaCl2 and were performed at 37° C. Following of equilibrations of 10 minutes-24 hours, the DNA pellet was resuspended in sodium citrate buffer (pH=7.2) and heated to 90° C. for 15 min to thermally cleave at sites of adenine- or guanine-N3 lesions. Lane 1, intact DNA; lane 2, A-specific reaction; lane 3, G-specific reaction; lanes 4-11, 500 pM ImPy-β-ImPy-(R)^CHLγ-ImPy-β-ImPy-β-Dp (2), equilibrations for 10 min, 20 min, 30 min, 1 h, 2 h, 4 h, 12 h, 24 h, respectively. Right. models bound to match sites on the DNA fragment (SEQ ID NO:15). The polyamide is colored as in FIG. 7. The solid arrows indicate cleavage bands from cleavage sites of adenine- or guanine-N3 lesions on the restriction fragment.
# All reactions were executed in a total volume of 40 μl. A polyamide stock solution or H2O was added to an assay buffer containing radiolabeled restriction fragment (10,000 cpm), affording final solution conditions of 10 mM Tris.HCl, 10 mM KCl, 10 mM MgCl2, 5 mM CaCl2, pH 7.0, and either 1 pM-10 nM nitrogen mustard-polyamide conjugate or no conjugate (for reference lanes). The solutions were equilibrated at 37° C. for the desired time period. The reactions were stopped by the addition of 60 μl of a solution containing 0.6 M NaOAc, 12.5 mM EDTA, 0.15 mM (bp) calf thymus DNA, 2.0 M NaCl, 0.8 mg/ml glycogen, and ethanol precipitated. Reactions were resuspended in 40 μl […] sodium citrate buffer, pH 7.2, and heated for […] The reactions were ethanol precipitated and resuspended in 1×TBE/80% formamide loading buffer, denatured by heating at 85° C. for 10 minutes, and placed on ice. The reaction products were separated by electrophoresis on an 8% polyacrylamide gel (5% cross-link, 7 M urea) in 1×TBE at 2000 V. Gels were dried and exposed to a storage phosphor screen (Molecular Dynamics) [Johnston, R. F., Pickett, S. C. & Barker, D. L. (1990). Autoradiography using storage phosphor technology. Electrophoresis 11, 355-360].
compound,measurement,setting,value
(S)-Seco-CBI-β-alanine-(dimethyl)-γ-aminobutyric acid [2S],concentration range of alkylation by CBI control compounds,[1],alkylate only at micromolar concentrations
ImImPyPy-(R)^(R)-CBIγ-ImPyPyPy-β-Dp [conjugate 1R],alkylation efficiency and rate compared with the other enantiomer conjugate,[1],higher alkylation efficiency and faster rates of alkylation than 1S
same,alkylation on the 5′-labeled strand,[1],no alkylation
same,site of alkylation,[1],alkylation at the site which includes a match site for the polyamide
"CN(C)CCCNC(=O)CCCc1ccc(N(CCCl)CCCl)cc1 [compound 4, 4-{4-[bis (2-chloroethyl)amino]phenyl}-N-[3-(dimethylamino)propyl]butanamide]",cleavage by freely diffusing alkylator,[2]; 10 μM concentration,no cleavage
(R)-Seco-CBI-β-alanine-(dimethyl)-β-aminobutyric acid [2R],concentration range of alkylation by CBI control compounds,[1],alkylate only at micromolar concentrations
ImPy-β-ImPy-(R)^CHLγ-ImPy-β-ImPy-β-Dp [conjugate 2],concentration at which minor cleavage was observed proximal to double base pair mismatch sites,[2],greater than 1 nM
same,specificity for reaction at match sites over mismatch sites,[2],approximately 20 fold
same,earliest time at which cleavage was detectable,"[2]; 0.5 nM, pH 7.0, 37° C.",10 min
same,final cleavage yield on the bottom strand,"[2]; 0.5 nM, pH 7.0, 37° C., 24 hours",45%
same,time at which alkylation was half completed at match sites,"[2]; 0.5 nM, pH 7.0, 37° C., monitored for 24 hours",2.2 h
same,cleavage on one strand (bottom strand),"[2]; 10 nM concentration, 37° C.",quantitative cleavage
same,alkylation at subnanomolar concentrations,[2]; subnanomolar concentrations,high yield
ImImPyPy-(R)^(S)-CBIγ-ImPyPyPy-β-Dp [conjugate 1S],site of alkylation,[1],alkylates adjacent to a match site
